Experimental data published in paper PMC6950969 (Saudi Pharmaceutical Journal : SPJ, 2019).
Values after ≈ are worked out from the molar mass of the structure shown. Structures can show the parent of a compound that is named as a salt.

Columns and labels:
[1] = Anti-lipid peroxidation activity
hCA II = hCA II (Homo sapiens, UniProt P00918); test: hCA II inhibition, esterase activity; type: biochemical
[2] = test system: butyrylcholinesterase (BChE); test: BChE inhibition, Ellman's method; type: biochemical; conditions: for Percentile of inhibition ± S.E.M against BChE: 20 µg/mL
hCA I = hCA I (Homo sapiens, UniProt P00915); test: hCA I inhibition, esterase activity; type: biochemical
[3] = test system: Acetylcholinesterase (AChE); test: AChE inhibition, Ellman's method; type: biochemical; conditions: 20 µg/mL
[4] = test system: butyrylcholinesterase (BChE); conditions: coumarins from Angelica officinalis L. fruits; ref Ferreira et al., 2006; cited from earlier work
pPI3K and pAkt = conditions: cells Caco-2; ref Liu et al., 2016; cited from earlier work
Caco-2 cells = conditions: purified from A. dahurica; ref Liu et al., 2016; cited from earlier work

Sequence of hCA I (P00915 whole entry): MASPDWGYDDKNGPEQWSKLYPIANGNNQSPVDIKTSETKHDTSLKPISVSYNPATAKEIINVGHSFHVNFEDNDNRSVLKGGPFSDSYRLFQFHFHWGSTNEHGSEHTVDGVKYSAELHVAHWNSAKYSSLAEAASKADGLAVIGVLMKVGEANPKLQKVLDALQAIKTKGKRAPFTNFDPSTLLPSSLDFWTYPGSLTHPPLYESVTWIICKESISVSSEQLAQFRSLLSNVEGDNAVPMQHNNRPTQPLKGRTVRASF

Row | Compound | IC50 values ± SD, anti-lipid peroxidation (TBA test) [1] [µg/mL] | Percentile of inhibition ± S.E.M against BChE [2] [%] | inhibition towards butyrylcholinesterase (BChE) (in words) [4] | further results
1 | O=C(/C=C/c1ccc(O)c(O)c1)O[C@@H]1C[C@](O)(C(=O)O)C[C@@H](O)[C@H]1O [Chlorogenic acid, reference compound] | 12.98 ± 4.89 (≈ 36.6 µM) | – | – | –
2 | COc1c2ccoc2cc2oc(=O)ccc12 [Bergapten] | 56.99 ± 3.87 (≈ 264 µM) | 31.00 ± 3.02 | strong inhibition | IC50 (hCA II): 8.25 µM; Ki (hCA II): 12.8 ± 1.92 µM; IC50 (hCA I): 7.29 µM; Ki (hCA I): 4.79 ± 0.57 µM; Percentile of inhibition ± S.E.M against AChE [3]: 18.98 ± 2.98%
3 | CC[C@H](/C=C/[C@@H](C)[C@H]1CC[C@H]2[C@@H]3CC=C4C[C@@H](O)CC[C@]4(C)[C@H]3CC[C@]12C)C(C)C [Stigmasterol] | – | 13.34 ± 2.99 | – | BChE inhibition activity (in words) [2]: did not show considerable inhibition towards BChE
4 | CC(C)=CCOc1c2occc2cc2ccc(=O)oc12 [imperatorin] | – | – | strong inhibition | –
5 | C[C@@H]1O[C@@H](OC[C@H]2O[C@@H](Oc3c(-c4ccc(O)c(O)c4)oc4cc(O)cc(O)c4c3=O)[C@H](O)[C@@H](O)[C@@H]2O)[C@H](O)[C@H](O)[C@H]1O [Rutin, reference compound] | 9.65 ± 3.09 (≈ 15.8 µM) | – | – | –
6 | CC[C@H](CC[C@@H](C)[C@H]1CC[C@H]2[C@@H]3CC=C4C[C@@H](O)CC[C@]4(C)[C@H]3CC[C@]12C)C(C)C [β-Sitosterol] | 492.30 ± 2.03 (≈ 1190 µM) | 9.93 ± 1.78 | – | BChE inhibition activity (in words) [2]: did not show considerable inhibition towards BChE
7 | CCCOC(=O)c1cc(O)c(O)c(O)c1 [Propyl gallate, reference compound] | 3.44 ± 2.05 (≈ 16.2 µM) | – | – | –
8 | COc1c2occc2cc2ccc(=O)oc12 [xanthotoxin] | – | – | strong inhibition | –
9 | COc1cc2c(cc1OC)C(=O)C(CC1CCN(Cc3ccccc3)CC1)C2 (centres unmarked) [Donepezil, donepezil hydrochloride, reference compound] | – | 90.33 ± 4.16 | – | –
10 | CC1(C)O[C@H]1COc1c2ccoc2cc2oc(=O)ccc12 [Oxypeucedanin] | 91.27 ± 2.76 (≈ 319 µM) | 36.89 ± 1.23 | – | IC50 (hCA II): 5.29 µM; Ki (hCA II): 8.85 ± 1.05 µM; IC50 (hCA I): 6.73 µM; Ki (hCA I): 5.33 ± 1.08 µM; Percentile of inhibition ± S.E.M against AChE [3]: 19.36 ± 1.87%
11 | Oxypeucedanin hydrate monoacetate | – | – | – | expression of pPI3K and pAkt (in words) (pPI3K and pAkt): significant down-regulation; cancer cell migration (in words) (Caco-2 cells): inhibition of cancer cell migration
12 | CC(C)=CCOc1c2ccoc2cc2oc(=O)ccc12 [isoimperatorin] | – | – | strong inhibition | –
